Test results taken from patent publication US20180188270A1, “DIAGNOSTIC TEST FOR ALZHEIMER'S DISEASE BASED ON IDENTIFICATION OF A PROTEOLYTIC PATHWAY” (Health Research, Inc., priority 2015, published 2018).
Several values for one entry are separate records, joined by “and”; a condition that tells them apart may be missing. Equal values may be shown once. Entries after “also recorded” stand apart in the source; their conditions may differ.

Experiments:
Format in all cases: in vivo, mouse
[1] = system: total plasma Aβ1-40 and Aβ1-42; test: Total plasma level of Aβ1-40 and Aβ1-42 in J20 AD mice and WT mice by ELISA; details: for increase in total plasma levels of Aβ1-40 and Aβ1-42: EP 0.5 mg/kg i.p. daily 5 days
From the text: (§1) B6.Cg-Tg(PDGFB-APPSwlnd) 20 Lms/2 JMjax mice, also known as J20 mice, were purchased from Jackson Laboratory. J20 mice express a mutant form of the human Aβ precursor protein (APP) bearing both the Swedish (K670N/M671L) and the Indiana (V717F) mutations (APPSwlnd) (Mucke et al., J Neurosci, 2000, 20, 4050-4058). Neural expression of the transgenic insert is directed by the human platelet-derived growth factor beta polypeptide (PDGFB) promoter. J20 mice in C57BL/6 background (male hemizygotes) were bred to wild type (WT) female C57BL/6J mice (also purchased from Jackson Laboratory). F1 mice were genotyped by PCR at weaning to identify the hemizygotes and the non-transgenic littermates. Mice at age of 1 month and 3 months were treated once daily with vehicle or EP (0.5 mg/kg) i.p for 5 days. EP was given in PBS (0.1 ml per 20 g body weight). Blood was collected from the mice at 6 h after the last PBS/EP dose by cardiac puncture at the time of sacrifice by carbon dioxide. Blood was collected into K3 EDTA-containing tubes (Multivette 600 from Sarstedt).
Total plasma levels of Aβ1-40 and Aβ1-42 were measured by ELISA. Briefly, 96-well ELISA plates were coated with an anti-Aβ1-42 monoclonal antibody (sc-374527) at 0.25 μg/100 μl/well at 4° C. overnight. The plates were washed three times with phosphate buffered saline tween-20 (PBST) and the coated wells were blocked by incubation with 200 μl/well of 1% BSA in PBS for at least 2 h at RT. […] The plates were then washed with PBST and incubated with an anti-Aβ1-42 rabbit polyclonal antibody (sc-9129) at 100 μl/well for 2 h at RT. The plates were washed again with PBST, and each well was incubated with a goat anti-rabbit IgG-HRP conjugate (100 μl) for 1 h at RT. After yet another round of wash with PBST, each well was incubated with 100 μl of HRP substrate 3,3′,5,5′-tetramethylbenzedine (Cell Signaling, 7004). Upon adequate color development, 100 μl of stop solution (Cell Signaling, 7002) was added to each well, and absorbance at 450 nm was promptly recorded by a microtiter plate reader.

[2] = system: plasma hAβ1-40; test: Plasma hAβ1-40 level in mice by ELISA; details: EP 0.5 mg/kg i.p. daily 5 days, hAβ1-40 40 μg/kg 1 h after fifth dose, 6 h
Protocol: Male C57BL/6 mice (7-8 weeks of age) were purchased from Taconic and were treated with vehicle (PBS) and EP (0.5 mg/kg) i.p. once daily for 5 days. […] Blood was collected into K3 EDTA-containing tubes (Multivette 600 from Sarstedt). […] The plates were washed three times with phosphate buffered saline with tween-20 (PBST) and the coated wells were blocked by incubation with 200 μl/well of 1% BSA in PBS for at least 2 h at room temperature (RT). […] The plates were washed again with PBST, and each well was incubated with a goat anti-rabbit IgG-HRP conjugate (100 μl) for 1 h at RT.

[3] = system: plasma coagulation factors FXII, PK, HMWK, FXI, FIX, FX, FII, FI and FVII; test: Changes in plasma coagulation factors in mice by IB (FI by ELISA)
Protocol: Animal studies. […] Male mice at 7-8 weeks of age were used, including wild type (WT) mice (C57BL/6), and mice deficient in FXII (C57BL/6-FXII^−/−) or FVII (C57BL/6-FVII^tTA/tTA). WT C57BL/6 mice were purchased from Taconic. C57BL/6-FXII^−/− mice and C57BL/6-FVII^tTA/tTA mice were bred in our own facility and genotyped. […] CCl4 was dissolved in corn oil, whereas all other substances were dissolved in PBS. The vehicle or the test substance was given to mice in 0.1 ml volume per 20 g body weight. Blood was collected from the mice at specific times by cardiac puncture at the time of sacrifice by carbon dioxide, and heart, liver and kidney were also collected from some of the mice. Blood was collected into K3 EDTA-containing tubes (Multivette 600 from Sarstedt), unless specified otherwise. All blood samples were promptly centrifuged to obtain plasma samples.
The plates were washed three times with phosphate buffered saline tween-20 (PBST) and the coated wells were blocked by incubation with 200 μl/well of 1% BSA in PBS for at least 2 h at RT. […] The plates were washed again with PBST, and each well was incubated with a goat anti-rabbit IgG-HRP conjugate (100 μl) for 1 h at RT. After yet another round of wash with PBST, each well was incubated with 100 μl of HRP substrate 3,3′,5,5′-tetramethylbenzedine (Cell Signaling, 7004). Upon adequate color development, 100 μl of stop solution (Cell Signaling, 7002) was added to each well, and absorbance at 450 nm was promptly recorded by a microtiter plate reader. Plasma FI concentration was determined using an assay kit (400-374-130050) from GenWay Biotech, following the manufacturer's instruction.
IB. Tissue samples were mixed with RIPA buffer (25 mM Tris-HCl, pH 7.6, 150 mM NaCl, 1% Nonidet P-40, 1% sodium deoxycholate, 0.1% SDS), supplemented with 2 mM phenylmethanesulfonyl fluoride, a proteinase inhibitor mix (Roche Applied Science) and phosphatase inhibitor Cocktail 2 (Sigma-Aldrich). Tissue samples were stroked in a Dounce homogenizer, and the homogenates were cleared by centrifugation at 12,000×g for 15 min at 4° C. Protein concentrations in all samples were measured by the BCA assay kit. Plasma samples were used without further processing (20 μl per sample). Each sample was mixed with 4× loading dye, heated for 5 min at 95° C. and then resolved by SDS-PAGE (8-12.5%). […] The proteins were transferred to polyvinylidene fluoride membrane, probed with specific antibodies and detected using the ECL Plus Kit (Amersham) or the SuperSignal West Pico Kit (Thermo Scientific).

[4] = system: plasma PEPD; test: Plasma PEPD concentration in mice by ELISA; details: for average plasma level of total PEPD, higher than with hPEPD alone: hPEPD 0.2 mg/kg 1 h after last EP dose
Protocol: Animal studies. All animal studies were performed in accordance with protocols approved by the Institutional Animal Care and Use Committee at Roswell Park Cancer Institute. Male mice at 7-8 weeks of age were used, including wild type (WT) mice (C57BL/6), and mice deficient in FXII (C57BL/6-FXII^−/−) or FVII (C57BL/6-FVII^tTA/tTA). WT C57BL/6 mice were purchased from Taconic. C57BL/6-FXII^−/− mice and C57BL/6-FVII^tTA/tTA mice were bred in our own facility and genotyped. The breeders were kindly provided by Dr. Francis J. Castellino at University of Notre Dame. […] CCl4 was dissolved in corn oil, whereas all other substances were dissolved in PBS. The vehicle or the test substance was given to mice in 0.1 ml volume per 20 g body weight. Blood was collected from the mice at specific times by cardiac puncture at the time of sacrifice by carbon dioxide, and heart, liver and kidney were also collected from some of the mice. Blood was collected into K3 EDTA-containing tubes (Multivette 600 from Sarstedt), unless specified otherwise. All blood samples were promptly centrifuged to obtain plasma samples.
Measurement of plasma levels of PEPD, SRC, Aβ1-42 and FI. […] The plates were washed three times with phosphate buffered saline tween-20 (PBST) and the coated wells were blocked by incubation with 200 μl/well of 1% BSA in PBS for at least 2 h at RT. After another round of wash with PBST, the plates were incubated with appropriately diluted Aβ1-42 standard, SRC standard or plasma samples (100 μl/well) for 2 h at RT. The plates were then washed with PBST and incubated with an anti-Aβ1-42 rabbit polyclonal antibody (sc-9129) or anti-SRC rabbit monoclonal antibody (2123) at 100 μl/well for 2 h at RT. The plates were washed again with PBST, and each well was incubated with a goat anti-rabbit IgG-HRP conjugate (100 μl) for 1 h at RT. After yet another round of wash with PBST, each well was incubated with 100 μl of HRP substrate 3,3′,5,5′-tetramethylbenzedine (Cell Signaling, 7004). Upon adequate color development, 100 μl of stop solution (Cell Signaling, 7002) was added to each well, and absorbance at 450 nm was promptly recorded by a microtiter plate reader. Plasma FI concentration was determined using an assay kit (400-374-130050) from GenWay Biotech, following the manufacturer's instruction.

[5] = system: coagulation factors FX, FII and FVII; test: Coagulation proteases in J20 AD mice by western blotting; details: AD mice at 1 month and 3 months of age, EP 0.5 mg/kg i.p. daily 5 days
From the text: as §1

[6] = system: plasma Aβ1-42; test: Plasma Aβ1-42 concentration in mice by ELISA; details: WT mice, EP 2.5 mg/kg i.p. daily 5 days
Protocol: Animal studies. All animal studies were performed in accordance with protocols approved by the Institutional Animal Care and Use Committee at Roswell Park Cancer Institute. Male mice at 7-8 weeks of age were used, including wild type (WT) mice (C57BL/6), and mice deficient in FXII (C57BL/6-FXII^−/−) or FVII (C57BL/6-FVII^tTA/tTA). WT C57BL/6 mice were purchased from Taconic. C57BL/6-FXII^−/− mice and C57BL/6-FVII^tTA/tTA mice were bred in our own facility and genotyped. […] CCl4 was dissolved in corn oil, whereas all other substances were dissolved in PBS. The vehicle or the test substance was given to mice in 0.1 ml volume per 20 g body weight. Blood was collected from the mice at specific times by cardiac puncture at the time of sacrifice by carbon dioxide, and heart, liver and kidney were also collected from some of the mice. Blood was collected into K3 EDTA-containing tubes (Multivette 600 from Sarstedt), unless specified otherwise. All blood samples were promptly centrifuged to obtain plasma samples.

[7] = WT mice, EP 2.5 mg/kg daily 5 days, hPEPD 0.2 mg/kg
[8] = WT mice, EP 2.5 mg/kg i.p. daily 5 days

enoxaparin [EP]
ratio of EP-induced increase in total plasma levels of Aβ1-40 and Aβ1-42 in AD mice to WT mice ([1]; 1 month of age): 8.71-9.32
ratio of EP-induced increase in total plasma levels of Aβ1-40 and Aβ1-42 in AD mice to WT mice ([1]; 3 month of age): 47.53-56.85
increase in total plasma levels of Aβ1-40 and Aβ1-42 ([1]; AD mice, 1 month of age): about 2.3 fold
increase in total plasma levels of Aβ1-40 and Aβ1-42 ([1]; AD mice, 3 month of age): 3.6-4.2 fold
increase in total plasma levels of Aβ1-40 and Aβ1-42 ([1]; WT mice at both 1 month and 3 months of age): about 1.6 fold
elevation of average plasma hAβ1-40 concentration by EP pretreatment [2]: 77.4 fold
EP inhibition of hPEPD-induced slight activation of FX, FII and FVII ([3]; FXII−/− mice): largely inhibited by EP
EP inhibition of activation of FX, FII and FVII ([3]; WT mice treated with hAβ1-42 40 μg/kg, EP 2.5 mg/kg daily 5 days): greatly inhibited the activation of FX, FII and FVII
EP prevention of hPEPD-induced activation of FXII, PK, HMWK, FXI and FIX [3, 7]: failed to prevent hPEPD from activating FXII, PK, HMWK, FXI and FIX
EP prevention of hPEPD-induced activation or cleavage of FX, FII, FI and FVII [3, 7]: prevented hPEPD from causing activation or cleavage of FX, FII, FI and FVII
effect of EP itself on plasma coagulation factors [3, 8]: had no effect on any of the FXII-FVII pathway factors measured; also recorded: had no effect on these factors
average plasma level of total PEPD in WT mice, lower than in FXII−/− mice ([4]; EP pretreatment, 6 h after hPEPD 0.2 mg/kg i.p.): 14.6%
effect of EP on plasma PEPD level ([4]; FXII−/− mice, EP 2.5 mg/kg i.p. daily 5 days): did not show a significant effect
plasma level of mPEPD, increase by EP [4, 8]: 2.0 fold and 2.1 fold
average plasma level of total PEPD, higher than with hPEPD alone ([4]; WT mice, EP 2.5 mg/kg i.p. daily 5 days, 1 h after hPEPD): 35.2 fold
average plasma level of total PEPD, higher than with hPEPD alone ([4]; WT mice, EP 2.5 mg/kg i.p. daily 5 days, 24 h after hPEPD): 63.8 fold
average plasma level of total PEPD ([4]; WT mice, EP pretreatment, 6 h after hPEPD 0.2 mg/kg i.p.): 19.7 nM
reduction of hPEPD dose allowed by EP without decreasing its plasma concentration ([4]; mice, plasma concentration required for inhibition of ERBB2-driven tumors): at least 50 fold
EP effect on activation of FX, FII and FVII [5]: inhibits the activation of FX, FII and FVII
average plasma level of endogenous mAβ1-42, higher in EP-treated mice than in control mice [6]: 1.7 fold
plasma level of total Aβ1-42, increase after EP plus hAβ1-42 ([6]; hAβ1-42 40 μg/kg 1 h after last dose, 6 h): 406.0 fold
